# Experiments:
# [1] = Kinetic solubility of the compound by dry down method; format: physicochemical; details: read-out: Kinetic_solubility
# [2] = target: T1, Phosphatidylinositol 4,5-bisphosphate 3-kinase catalytic subunit alpha isoform (Homo sapiens, UniProt P42336); experiment: Inhibition of recombinant PI3Kalpha (unknown origin)-mediated 3,4,5-inositoltriphosphate formation after 30 mins by TAMRA-PIP3-based competitive fluorescence polarization assay
# [3] = target: T1, Phosphatidylinositol 4,5-bisphosphate 3-kinase catalytic subunit alpha isoform
# Description: Inhibition of PI3Kalpha-mediated AKT Ser 473 phosphorylation in human PC3 cells
# [4] = Apparent permeability from apical to basal side of MDCK cells; format: ADME, cell-based, Canis lupus familiaris; details: dog
# MCF7 = experiment: Antiproliferative activity against human MCF7 cells expressing neo-HER2 after 3 days by CellTiter-Glo assay; format: functional, cell-based; details: MCF7, 72 h
# PC-3 = experiment: Antiproliferative activity against human PC3 cells after 4 days by CellTiter-Glo assay; format: functional, cell-based; details: PC-3, 96 h
# [5] = Clearance in human liver microsomes; format: ADME, Microsome
# [6] = Clearance in rat liver microsomes; format: ADME, Microsome
# [7] = Plasma clearance in Sprague-Dawley rat at 1 mg/kg, iv; format: ADME, organism-based; design: dose 1 mg/kg, route intravenous
# Mus musculus [8] = experiment: Unbound AUC in nude mouse at 100 mg/kg; format: ADME, organism-based; design: dose 100 mg/kg; details: in vivo
# Mus musculus [9] = experiment: Unbound AUC in nude mouse at 25 mg/kg; format: ADME, organism-based; design: dose 25 mg/kg; details: in vivo
# Mus musculus [10] = experiment: Unbound AUC in nude mouse at 50 mg/kg; format: ADME, organism-based; design: dose 50 mg/kg; details: in vivo
# [11] = Thermodynamic solubility of the compound at pH 7.4; format: physicochemical; details: buffer, read-out: Therm_solubility
# T1 sequence (P42336 whole entry, canonical isoform): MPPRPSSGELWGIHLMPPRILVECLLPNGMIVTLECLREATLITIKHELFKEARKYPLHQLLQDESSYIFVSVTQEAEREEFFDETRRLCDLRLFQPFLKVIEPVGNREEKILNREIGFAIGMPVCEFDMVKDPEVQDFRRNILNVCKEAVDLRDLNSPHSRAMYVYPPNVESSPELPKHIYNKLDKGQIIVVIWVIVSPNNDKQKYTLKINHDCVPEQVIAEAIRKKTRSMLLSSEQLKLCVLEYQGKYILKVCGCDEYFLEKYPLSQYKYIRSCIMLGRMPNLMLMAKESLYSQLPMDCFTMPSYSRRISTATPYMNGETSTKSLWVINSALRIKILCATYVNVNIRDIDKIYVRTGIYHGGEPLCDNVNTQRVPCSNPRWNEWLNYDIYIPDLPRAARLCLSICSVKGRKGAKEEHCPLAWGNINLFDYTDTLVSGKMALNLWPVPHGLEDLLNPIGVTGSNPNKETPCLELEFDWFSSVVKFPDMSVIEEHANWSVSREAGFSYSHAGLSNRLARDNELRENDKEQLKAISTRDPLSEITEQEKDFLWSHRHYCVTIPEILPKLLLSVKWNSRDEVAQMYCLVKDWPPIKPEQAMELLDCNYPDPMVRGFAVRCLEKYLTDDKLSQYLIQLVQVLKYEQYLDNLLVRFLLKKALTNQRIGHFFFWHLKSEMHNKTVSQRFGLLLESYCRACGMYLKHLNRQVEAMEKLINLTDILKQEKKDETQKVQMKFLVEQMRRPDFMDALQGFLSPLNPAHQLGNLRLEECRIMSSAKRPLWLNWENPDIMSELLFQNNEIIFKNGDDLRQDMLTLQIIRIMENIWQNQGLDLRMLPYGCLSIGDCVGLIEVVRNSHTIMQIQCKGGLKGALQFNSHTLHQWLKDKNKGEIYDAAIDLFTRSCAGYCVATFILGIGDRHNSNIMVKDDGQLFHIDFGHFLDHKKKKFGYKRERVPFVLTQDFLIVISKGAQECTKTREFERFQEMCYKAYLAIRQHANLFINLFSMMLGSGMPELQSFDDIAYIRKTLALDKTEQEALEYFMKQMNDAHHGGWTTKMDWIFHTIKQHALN
SMILES,solubility kinetic [1],IC50 [2],IC50 [3],CLhep predicted [5],CLhep predicted [6],other results
Clc1ccccc1-n1cnnc1-c1cc2c(s1)-c1ccccc1OCC2,15 µM,7.3 nM,74 nM,,,
CC(=O)Nc1nc(-c2cc3c(s2)-c2ncccc2OCC3)c(-c2ccccc2Cl)[nH]1,41 µM,< 1.4 nM,36 nM,,,
Clc1ccccc1-c1ocnc1-c1cc2c(s1)-c1ncccc1OCC2,41 µM,12 nM,250 nM,,,
CN(C(=O)c1cc2c(s1)-c1ccc(C(N)=O)cc1OCC2)c1ccccc1Cl,,1.5 nM,100 nM,18 mL/min/kg,43 mL/min/kg,Papp A→B [4]: 2.1 ×10⁻⁶ cm/s; IC50 (MCF7): > 4100 nM; IC50 (PC-3): > 3500 nM
CC(C)Cn1ncnc1-c1cc2c(s1)-c1ccc(C(N)=O)cc1OCC2,> 200 µM,4 nM,279 nM,19 mL/min/kg,49 mL/min/kg,clearance [7]: 112 mL/min/kg
NC(=O)c1ccc2c(c1)OCCc1cc(-c3ncnn3CC(F)(F)F)sc1-2,> 200 µM,7 nM,487 nM,7 mL/min/kg,12 mL/min/kg,clearance [7]: 11 mL/min/kg
CN(C(=O)c1cc2c(s1)-c1ncccc1OCC2)c1ccccc1Cl,41 µM,7 nM,> 1000 nM,,,
O=c1[nH]nc(-c2cc3c(s2)-c2ccccc2OCC3)n1-c1ccccc1Cl,,1.2 nM,20 nM,,,
CC(C)N(C)C(=O)c1cc2c(s1)-c1ccccc1OCC2,,> 2000 nM,,,,
NC(=O)c1ccc2c(c1)OCCc1cc(-c3n[nH]cc3-c3ccccc3Cl)sc1-2,12 µM,1 nM,28 nM,,,
NC(=O)c1ccc2c(c1)OCCc1cc(-c3ncnn3CCO)sc1-2,> 200 µM,15 nM,> 1000 nM,10 mL/min/kg,25 mL/min/kg,
CC(C)(O)Cn1ncnc1-c1cc2c(s1)-c1ccc(C(N)=O)cc1OCC2,> 200 µM,4 nM,481 nM,11 mL/min/kg,15 mL/min/kg,clearance [7]: 57 mL/min/kg
Nc1nc(-c2cc3c(s2)-c2ccccc2OCC3)c(-c2ccccc2Cl)s1,4 µM,< 0.5 nM,23 nM,,,
NC(=O)c1ccc2c(c1)OCCc1cc(-c3ncnn3C3CCC3)sc1-2,37 µM,8 nM,563 nM,19 mL/min/kg,44 mL/min/kg,clearance [7]: 61 mL/min/kg
NC(=O)c1ccc2c(c1)OCCc1cc(-c3n[nH]c(=O)n3-c3ccccc3Cl)sc1-2,15 µM,< 0.5 nM,20 nM,,,
CN(C(=O)c1cc2c(s1)-c1ccccc1OCC2)c1ccc(F)cc1F,,52 nM,> 1000 nM,,,
CN(C)CCn1ncnc1-c1cc2c(s1)-c1ccc(C(N)=O)cc1OCC2,128 µM,142 nM,,14 mL/min/kg,38 mL/min/kg,
NC(=O)c1ccc2c(c1)OCCc1cc(-c3nncn3-c3ccccc3Cl)sc1-2,9 µM,< 0.5 nM,60 nM,,,
CC(C)n1ncnc1-c1cc2c(s1)-c1ccc(C(N)=O)cc1OCC2,> 200 µM,,,10 mL/min/kg,29 mL/min/kg,fAUC (Mus musculus [8]): 17.8 µM·h; fAUC (Mus musculus [9]): 5.7 µM·h; fAUC (Mus musculus [10]): 13.6 µM·h; solubility thermodynamic [11]: 53 µg/mL; Papp A→B [4]: 20 ×10⁻⁶ cm/s; clearance [7]: 13 mL/min/kg
NC(=O)c1ccc2c(c1)OCCc1cc(-c3nnnn3-c3ccccc3Cl)sc1-2,> 200 µM,< 0.5 nM,42 nM,,,
Fc1ccc(-n2ncnc2-c2cc3c(s2)-c2ccccc2OCC3)c(F)c1,4.1 µM,1.2 nM,110 nM,,,
CN(C(=O)c1cc2c(s1)-c1ccccc1OCC2)C1CCCCC1,,885 nM,,,,
NC(=O)c1ccc2c(c1)OCCc1cc(-c3ncnn3-c3ccc(F)cc3F)sc1-2,> 200 µM,< 0.5 nM,17 nM,7 mL/min/kg,24 mL/min/kg,fAUC (Mus musculus [8]): 0.54 µM·h; fAUC (Mus musculus [9]): 0.26 µM·h; fAUC (Mus musculus [10]): 0.53 µM·h; solubility thermodynamic [11]: < 1 µg/mL; Papp A→B [4]: 13 ×10⁻⁶ cm/s; IC50 (MCF7): 23 nM; IC50 (PC-3): 180 nM; clearance [7]: 38 mL/min/kg
